Values belong to the compound of their own block, whether it stands above or below them.
Assays:
[1] = system: HEL leukemic cells; assay: Western blot analysis in HEL leukemic cells (JAK2 V617F); format: cell-based, human; settings: for concentration with about the same potency in hyperacetylation of tubulin-α: 24 h, Western blot
Procedure: Human leukemia cell line HEL with JAK2 V617F mutation (DSMZ Accession No: ACC-11).
(§1) The assay is carried out as described in Buchwald et al. 2010 and Buchwald et al. 2013. Briefly, cells were collected and lysed in NET-N buffer (150 mM NaCl, 1 mM EDTA, 50 mM Tris-HCl (pH 7.8), 0.5% Nonidet P-40 (NP-40), 1 mM phenylmethylsulfonyl fluoride, 0.5 mg/ml leupeptin and 0.5 mg/ml pepstatin) followed by mild sonification on ice. Protein lysate ([…]) was boiled in Laemmli buffer and separated on SDS-polyacrylamide gel electrophoresis for western blotting with specific antibodies. All lysates were assessed by Bradford assay for protein concentrations.

[2] = system: RKO cells; assay: Western blot analysis in RKO colorectal cancer cells; format: cell-based, human
Procedure: FIG. 5. Various cancer cells were treated for 24 h as shown and tested by Western blot analysis.
(D) Inhibition of HDAC6 protects it from degradation by the addition of a pro-apoptotic agent (staurosporine, ST).
The total amount of vinculin serves as a loading control; Proof of tubulin acetylation serves as proof of the treatment accuracy. The loss of the caspase-3 corresponds to the induction of apoptosis (programmed cell death).
Human colon cancer cell lines RKO (ATCC Accession No: CRL-2577) and HCT-116 (DSMZ Accession No: ACC-581).
as §1

[3] = system: BV-173 cells; assay: Western blot analysis in BV-173 cells; format: cell-based, human; settings: for acetylation of histone H3: BV-173, 1 μM MARB1, 2 μM MARB2 or 2 mM VPA
Procedure: BV-173 cells (BCR-ABL positive leukemic cells) were used as control cells left (Ctl) or with 1 μM MARB1, 2 μM MARB2 or 2 mM VPA treated for 24 h. These concentrations were chosen to achieve equipotent effects on cells which was in preliminary tests (data not shown). Shown are acetylated tubulin-α, α-tubulin, acetylated histone H3, WT1, survivin and β-actin. The total amount of α-tubulin and β-actin were used as loading control. Mr, relative molecular weight in kilodaltons. The degradation of WT1 in patients treated with VPA cells bases on a loss of WT1 mRNA and the increased degradation of WT1 protein by induction of the E2 ubiquitin conjugase UbcH8.
(§2) Flow cytometric analysis of the induction of (A) apoptotic DNA fragmentation and (B) Cell cycle analysis of BV 173 cells. The cells were kept as control cells (Ctl), treated with 1 μM or 2 μM MARB1 MARB2 and 0.2 or 0.5 μM imatinib for 48 h. The data was received by two independent experiments. The individual compounds show only slight effects in the used concentrations; whereas their combination can effectively kill leukemic cells. (C) Western blot analysis on data from the BCR-ABL, acetylated tubulin and α-sliced PARP1; the total amount of tubulin-α serves as a loading control. BV-173 cells were treated for 24 h with 1 μM, or 2 μM MARB1 or MARB2.
(§3) Human leukemia cell lines BV 173 and K562 with BCR-ABL mutation (Leibniz Institute DSMZ—German Collection of Microorganisms and Cell Cultures, DSMZ Accession Nos: ACC-20 and ACC-10).
as §1

[4] = system: PRXF DU-145; assay: In vitro activity against solid tumor cell lines (FACS analysis method a); format: cell-based; settings: Homo sapiens, Prostate
Procedure: (§4) Human prostate cancer cell lines PRXF DU-145, PRXF LNCaP, PRXF PC-3M (Oncotest GmbH, Freiburg, Germany)
(§5) The assay is carried out as described in Pietschmann et al., 2012 and Brandl et al. 2012. Briefly, 10^5 cells were fixed in 1 ml 70% EtOH with 0.05% Tween-20 overnight at 4° C. The following day, cells were washed with 3 ml 38 mM sodium citrate, pH 7.4, and incubated for 20 min at 37° C. in 0.5 ml 38 mM sodium citrate, pH 7.4, supplemented with 50 μg/ml propidium iodide and 10 μg/ml RNase-A. DNA contents of the cells were measured by fluorescence-activated cell sorter (FACS). This method allows detection of the apoptotic subG1-fraction, which has a DNA content below 2n due to apoptotic cleavage of DNA. Equally, the cell cycle profile can be assessed with this method.
(§6) The novel HDAC6 inhibitors were tested in a panel of tumor cell lines for cytostatic/toxic activities (see Table 2).

[5] = system: PRXF PC-3M; assay: as above; format: cell-based; settings: Homo sapiens, Prostate
Procedure: as §4, §5, §6

[6] = system: PRXF LNCaP; assay: as above; format: cell-based; settings: Homo sapiens, Prostate
Procedure: as §4, §5, §6

[7] = system: UXF 1138; assay: as above; format: cell-based; settings: Homo sapiens, Uterus
Procedure: Human uterus cancer cell line UXF 1138 (Oncotest GmbH, Freiburg, Germany)
as §5, §6

[8] = system: HCT-116 cells; assay: Western blot analysis in HCT-116 colon cancer cells; format: cell-based, human; settings: HCT-116 cells, 24 h
Procedure: FIG. 5. Various cancer cells were treated for 24 h as shown and tested by Western blot analysis. […] Human colon cancer cell lines RKO (ATCC Accession No: CRL-2577) and HCT-116 (DSMZ Accession No: ACC-581). Western Blot Analysis a […] Protein lysate ([…]) was boiled in Laemmli buffer and separated on SDS-polyacrylamide gel electrophoresis for western blotting with specific antibodies. All lysates were assessed by Bradford assay for protein concentrations.

[9] = system: 42 solid tumor cell lines; assay: In vitro activity against solid tumor cell lines, mean of all lines; format: cell-based; settings: average IC50 value from all 42 measurements
[10] = system: BV-173 cells; assay: Flow cytometric analysis of BV-173 cells, combination with imatinib; format: cell-based, human; settings: BV-173, 1 μM MARB1 or 2 μM MARB2 combined with 0.2 or 0.5 μM imatinib, 48 h
Procedure: as §2, §3
as §5, with “This method allows detection of the apoptotic subG1-fraction, which has a DNA content below 2n due to apoptotic cleavage of DNA.” left out

[11] = system: MAXF MCF-7; assay: In vitro activity against solid tumor cell lines (FACS analysis method a); format: cell-based; settings: Homo sapiens, MCF7, Breast
Procedure: (§7) Human breast cancer cell lines MAXF 401 and MAXF MCF-7 (Oncotest GmbH, Freiburg, Germany)
as §5, §6

[12] = system: MAXF 401; assay: as above; format: cell-based; settings: Homo sapiens, MAXF401, Breast
Procedure: as §7, §5, §6

[13] = BV-173, 1 μM MARB1, 2 μM MARB2, 24 h

Structure (SMILES): CN1CCc2c(c3ccccc3n2Cc2ccc(C(=O)NO)cc2)C1 [tubastatin A, reference compound]
concentration with about the same potency in hyperacetylation of tubulin-α [1]: ~5 µM

IC50 [4]: 10.3 µM
IC50 [5]: 20.8 µM
IC50 [6]: 4.8 µM
IC50 [7]: 5.49 µM
IC50 [9]: 16.4 µM
IC50 [11]: 7.69 µM
IC50 [12]: 13.7 µM
Structure (SMILES): CN1CC(=O)N2Cc3c(c4ccccc4n3Cc3ccc(C(=O)NO)cc3)C(C2)C1=O (stereo not drawn) [MARB2, N-Hydroxy-4-((5-methyl-3,6-dioxo-4,5,6,7-tetrahydro-1H-2,7-methano[1,4]diazonino[6,7-b]indol-12(3H)-yl)methyl)benzamide]
hyperacetylation of tubulin ([2]; 0.5 μM, 24 h): sufficient to induce hyperacetylation of tubulin
HDAC6 loss in staurosporin (ST)-treated cells ([2]; with staurosporine): protects ST-treated RKO cells
acetylation of tubulin-α [3, 13]: hyperacetylation of tubulin-α
expression of survivin [3, 13]: reduction of the expression of survivin
acetylation of histone H3 ([3]; 24 h): Neither MARB1, nor MARB2 cause these alterations
BCR-ABL expression on the protein level ([3]; BV-173, compound alone, 24 h): do not affect
BCR-ABL stabilization/degradation in combination with imatinib ([3]; BV-173, with imatinib, 24 h): significantly inhibit the unwanted stabilization of BCR-ABL
tubulin acetylation and degradation [8]: starts the hyperacetylation of tubulin in colon carcinoma cells (RKO and HCT-116 cells) without destroying it
apoptotic and necrotic sub-G1 populations [10]: significantly increases
concentration with about the same potency in hyperacetylation of tubulin-α [1]: ~2 µM

Structure (SMILES): Cc1[nH]c2ccccc2c1CCNCc1ccc(/C=C/C(=O)NO)cc1 [LBH589, reference compound]
tubulin acetylation and degradation [8]: degradation of tubulin
acetylation of tubulin-α ([1]; compared to other inhibitors): decreased acetylation of tubulin-α

Structure (SMILES): CCCC(CCC)C(=O)O [VPA, reference compound]
acetylation of histone H3 ([3]; 24 h): induces hyperacetylation of histone H3

Source: patent publication US10106540B2, “HDAC6 inhibitors and their uses” (Universität Regensburg, priority 2014, dated 2018)
